Source: US20190195864A1, “CELL-FREE SENSOR SYSTEMS” (priority 2016, published 2019)

Columns and labels:
tetR = target: T1, tetR (Escherichia coli, UniProt P04483); assay: T7 in vitro transcription from tetR-controlled reporter plasmid, ATC titration; type: biochemical; conditions: 100 nM tetR and 100 nM reporter plasmid; ATC titrated 2 uM to 0 uM; 37° C., 4 hours; agarose gel readout
T1 construct: The tetR gene was cloned into the pET28a(+) E. coli expression plasmid; 6xHis (C); made in house; host or cells: E. coli BL21(DE3), pET28a(+)
Protocol: Using a fixed amount of tetR and plasmid, 100 nM each, T7 transcription reactions were set up as described above with the inclusion of a titrating amount of anhydrotetracycline (ATC), the native ligand for tetR. The ATC titration ranged from 2 uM to 0 uM. The IVT transcripts were analyzed by gel as described above. […] This titratable response is a requirement when working with engineered sensors cell-free to enrich a population for those members with improved ligand binding function in the pool.

cells = assay: cell-based dose response of TetR sensors to nootkatone (FIG. 10); conditions: cell-based sensor assay
From the text: This is particularly useful in situations when, inter alia, a target molecule is toxic to cells in vivo and therefore a sensor to conduct cell-based detection is impractical. […] Accordingly, the detection of this target molecule would benefit from the cell-free methods described herein.

T1 sequence (P04483 whole entry): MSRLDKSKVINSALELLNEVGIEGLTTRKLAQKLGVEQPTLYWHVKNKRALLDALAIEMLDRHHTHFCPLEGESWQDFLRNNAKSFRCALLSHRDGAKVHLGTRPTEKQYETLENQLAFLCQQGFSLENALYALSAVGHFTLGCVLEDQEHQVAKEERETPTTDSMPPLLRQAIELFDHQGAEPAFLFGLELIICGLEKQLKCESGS

| SMILES | ATC concentration giving a strong RNA band similar to no tetR (full derepression of transcription) (tetR) [nM] | nootkatone concentration after which there is a toxic effect and the cells start to die (cells) [mg/mL] |
| --- | --- | --- |
| Cc1c2c(c(O)c3c(O)cccc13)C(=O)[C@]1(O)C(=O)C(C(N)=O)=C(O)[C@@H](N(C)C)[C@@H]1C2 [ATC, anhydrotetracycline] | 200 |  |
| C=C(C)[C@@H]1CCC2=CC(=O)C[C@@H](C)[C@]2(C)C1 [nootkatone] |  | > 0.5 |
